Laboratory results reported in US10633350B2, “Diphenyl derivatives and uses thereof” (NOVARTIS AG, priority 2017, dated 2020).

Tests used:
FoxO3a = FoxO3a inhibition assay (GFP-FoxO3a nuclear to cytoplasmic translocation) in U2OS GFP-FoxO3a H212R reporter cells; assay type: cell-based; conditions: Homo sapiens, 0.5 h, serum starved overnight, 30 minutes compound treatment, ratio of nuclear to cytosolic GFP intensity, AC50 = concentration that results in 50% activation or inhibition, read-out: FoxO AC50
Procedure: (§1) Phosphorylation of Akt on S473 and FoxO3a nuclear to cytoplasmic translocation were used as readouts of PI3K/Akt/mTOR pathway activation downstream of growth factor signaling.
(§2) Reporter cell line. U2OS GFP-FoxO3a H212R reporter cell line was established by transducing U2OS cells with the retroviral plasmid pLEGFP-C1 containing FoxO3a H212R transgene and selecting for G418 resistant clones.
(§3) Reporter assay. U2OS GFP-FoxO3a H212R cells were plated in 384-well plates at 4000 cells per well in 30 microliters of McCoy's 5A medium containing 10% FBS. On day 1 the cells were washed with serum free medium and serum starved overnight. On day 2 the cells were treated with different doses of the compounds for 30 minutes, fixed with 4% Paraformaldehyde for 1 hour and stained with Phospho-AKT (Ser473) antibody (Cell Signaling Technology, catalog #4060) overnight at 4° C. After nuclei staining with Hoechst 33342 (Life Technologies, catalog # H3570) the plates were imaged with InCell 2000 (GE Healthcare Bio-Sciences). FoxO3a inhibition activity is calculated as the ratio of nuclear to cytosolic GFP intensity in percent. Akt activation is measured as the total cellular intensity of Phospho-Akt antibody staining in percent. DMSO control is set as 0% activity.

Akt = Akt activation assay (Phospho-AKT (Ser473) antibody staining) in U2OS GFP-FoxO3a H212R reporter cells; assay type: cell-based; conditions: Homo sapiens, 0.5 h, serum starved overnight, 30 minutes compound treatment, total cellular intensity of Phospho-Akt (Ser473) antibody staining, AC50 = concentration that results in 50% activation or inhibition
Procedure: as §1, §2, §3

Cc1cc(C(N)=O)nn1-c1ccc(Cc2ccc(-c3ccc([C@@H]4CCCN4C)cc3)cc2)cc1 [Example 5-8, (S)-5-methyl-1-(4-((4′-(1-methylpyrrolidin-2-yl)-[1,1′-biphenyl]-4-yl)methyl)phenyl)-1H-pyrazole-3-carboxamide]
AC50 (FoxO3a): 76 nM | AC50 (Akt): 145 nM

Cc1cc(C(N)=O)nn1-c1ccc(C(C)(C)c2ccc(-c3ccc(CN4CCCC4)cc3)cc2)cc1 [Example 6-1, 5-methyl-1-(4-(2-(4′-(pyrrolidin-1-ylmethyl)-[1,1′-biphenyl]-4-yl)propan-2-yl)phenyl)-1H-pyrazole-3-carboxamide]
AC50 (FoxO3a): 115 nM | AC50 (Akt): 292 nM

Cc1cc(C(N)=O)nn1-c1ccc(C(C)(C)c2ccc(-c3cccc(S(C)(=O)=O)c3)cc2)cc1 [Example 6-2, 5-methyl-1-(4-(2-(3′-(methylsulfonyl)-[1,1′-biphenyl]-4-yl)propan-2-yl)phenyl)-1H-pyrazole-3-carboxamide]
AC50 (FoxO3a): 480 nM | AC50 (Akt): 1810 nM

Cc1cc(C(N)=O)nn1-c1ccc(C(C)(C)c2ccc(-c3ccncc3)cc2)cc1 [Example 6-3, 5-methyl-1-(4-(2-(4-(pyridin-4-yl)phenyl)propan-2-yl)phenyl)-1H-pyrazole-3-carboxamide]
AC50 (FoxO3a): 149 nM | AC50 (Akt): 432 nM

Cc1cc(C(N)=O)nn1-c1ccc(C(C)(C)c2ccc(-c3ccc4[nH]ncc4c3)cc2)cc1 [Example 6-4, 1-(4-(2-(4-(1H-indazol-5-yl)phenyl)propan-2-yl)phenyl)-5-methyl-1H-pyrazole-3-carboxamide]
AC50 (FoxO3a): 517 nM | AC50 (Akt): 1040 nM

Cc1cc(C(N)=O)nn1-c1ccc(C(C)(C)c2ccc(-c3ccnc(N)c3)cc2)cc1 [Example 6-5, 1-(4-(2-(4-(2-aminopyridin-4-yl)phenyl)propan-2-yl)phenyl)-5-methyl-1H-pyrazole-3-carboxamide]
AC50 (FoxO3a): 134 nM | AC50 (Akt): 415 nM

Cc1nnc(-c2ccc(-c3ccc(C(C)(C)c4ccc(-n5nc(C(N)=O)cc5C)cc4)cc3)cc2)o1 [Example 6-6, 5-methyl-1-(4-(2-(4′-(5-methyl-1,3,4-oxadiazol-2-yl)-[1,1′-biphenyl]-4-yl)propan-2-yl)phenyl)-1H-pyrazole-3-carboxamide]
AC50 (FoxO3a): 283 nM | AC50 (Akt): 842 nM

Cc1cc(C(N)=O)nn1-c1ccc(C(C)(C)c2ccc(C3=CCC(=O)CC3)cc2)cc1 [Example 7, 5-methyl-1-(4-(2-(4′-oxo-2′,3′,4′,5′-tetrahydro-[1,1′-biphenyl]-4-yl)propan-2-yl)phenyl)-1H-pyrazole-3-carboxamide]
AC50 (FoxO3a): 58 nM | AC50 (Akt): 276 nM

Cc1cc(C(N)=O)nn1-c1ccc(C(C)(C)c2ccc(C3=CCC(N4CCOCC4)CC3)cc2)cc1 (stereo not shown) [Example 8, 5-methyl-1-(4-(2-(4′-morpholino-2′,3′,4′,5′-tetrahydro-[1,1′-biphenyl]-4-yl)propan-2-yl)phenyl)-1H-pyrazole-3-carboxamide]
AC50 (FoxO3a): 96 nM | AC50 (Akt): 377 nM

Cc1cc(C(N)=O)nn1-c1ccc(C(C)(C)c2ccc(C3=CCC(O)CC3)cc2)cc1 (stereo not shown) [Example 9, 1-(4-(2-(4′-hydroxy-2′,3′,4′,5′-tetrahydro-[1,1′-biphenyl]-4-yl)propan-2-yl)phenyl)-5-methyl-1H-pyrazole-3-carboxamide]
AC50 (FoxO3a): 253 nM | AC50 (Akt): 532 nM

Cc1cc(C(N)=O)nn1-c1ccc(C(C)(C)c2ccc(-c3ccccn3)cc2)cc1 [Example 10, 5-methyl-1-(4-(2-(4-(pyridin-2-yl)phenyl)propan-2-yl)phenyl)-1H-pyrazole-3-carboxamide]
AC50 (FoxO3a): 470 nM | AC50 (Akt): 733 nM

Cc1cc(C(N)=O)nn1-c1ccc(C(C)(C)c2ccc(-c3ccc(C4(CN)COC4)cc3)cc2)cc1 [Example 11, 1-(4-(2-(4′-(3-(aminomethyl)oxetan-3-yl)-[1,1′-biphenyl]-4-yl)propan-2-yl)phenyl)-5-methyl-1H-pyrazole-3-carboxamide]
AC50 (FoxO3a): 607 nM | AC50 (Akt): 1190 nM

Cc1cc(C(N)=O)nn1-c1ccc(C(C)(C)c2ccc(-c3ccc(C4(N)COC4)cc3)cc2)cc1 [Example 12, 1-(4-(2-(4′-(3-aminooxetan-3-yl)-[1,1′-biphenyl]-4-yl)propan-2-yl)phenyl)-5-methyl-1H-pyrazole-3-carboxamide]
AC50 (FoxO3a): 93 nM | AC50 (Akt): 283 nM

Cc1nc(C(N)=O)nn1-c1ccc(C(C)(C)c2ccc(-c3ccc(CN4CCCC4)cc3)cc2)cc1 [Example 13-1, 5-methyl-1-(4-(2-(4′-(pyrrolidin-1-ylmethyl)-[1,1′-biphenyl]-4-yl)propan-2-yl)phenyl)-1H-1,2,4-triazole-3-carboxamide]
AC50 (FoxO3a): 128 nM | AC50 (Akt): 375 nM

Cc1nc(C(N)=O)nn1-c1ccc(C(C)(C)c2ccc(-c3ccc(S(=O)(=O)N(C)C)cc3)cc2)cc1 [Example 13-2]
AC50 (FoxO3a): 112 nM | AC50 (Akt): 252 nM

Cc1nc(C(N)=O)nn1-c1ccc(C(C)(C)c2ccc(-c3ccc4ncccc4c3)cc2)cc1 [Example 13-3]
AC50 (FoxO3a): 311 nM | AC50 (Akt): 943 nM

Cc1nc(C(N)=O)nn1-c1ccc(C(C)(C)c2ccc(-c3ccc4nccnc4c3)cc2)cc1 [Example 13-4]
AC50 (FoxO3a): 429 nM | AC50 (Akt): 1240 nM

Cc1nc(C(N)=O)nn1-c1ccc(C(C)(C)c2ccc(-c3ccc4ccncc4c3)cc2)cc1 [Example 13-5]
AC50 (FoxO3a): 147 nM | AC50 (Akt): 446 nM

Cc1nc(C(N)=O)nn1-c1ccc(C(C)(C)c2ccc(-c3ccc4scnc4c3)cc2)cc1 [Example 13-7]
AC50 (FoxO3a): 159 nM | AC50 (Akt): 504 nM

Cc1nc(C(N)=O)nn1-c1ccc(C(C)(C)c2ccc(-c3cnn(C)c3)cc2)cc1 [Example 13-8]
AC50 (FoxO3a): 664 nM | AC50 (Akt): 1750 nM

Cc1cc(-c2ccc(C(C)(C)c3ccc(-n4nc(C(N)=O)nc4C)cc3)cc2)ccn1 [Example 13-9]
AC50 (FoxO3a): 183 nM | AC50 (Akt): 714 nM

Cc1nc(C(N)=O)nn1-c1ccc(C(C)(C)c2ccc(-c3ccc(C#N)nc3)cc2)cc1 [Example 13-10]
AC50 (FoxO3a): 489 nM | AC50 (Akt): 1180 nM

Cc1nc(C(N)=O)nn1-c1ccc(C(C)(C)c2ccc(-c3cnc4c(c3)OCCN4C)cc2)cc1 [Example 13-11]
AC50 (FoxO3a): 416 nM | AC50 (Akt): 1000 nM

Cc1nc(C(N)=O)nn1-c1ccc(C(C)(C)c2ccc(-c3ccc(CN4CCOCC4)cc3)cc2)cc1 [Example 13-12]
AC50 (FoxO3a): 64 nM | AC50 (Akt): 261 nM

Cc1nnc(-c2cccc(-c3ccc(C(C)(C)c4ccc(-n5nc(C(N)=O)nc5C)cc4)cc3)c2)o1 [Example 13-13]
AC50 (FoxO3a): 179 nM | AC50 (Akt): 506 nM

Cc1nc(C(N)=O)nn1-c1ccc(C(C)(C)c2ccc(-c3ccc(N4CCCC4)nc3)cc2)cc1 [Example 13-14]
AC50 (FoxO3a): 386 nM | AC50 (Akt): 1170 nM

Cc1nc(C(N)=O)nn1-c1ccc(C(C)(C)c2ccc(-c3ccc(N4CCOCC4)nc3)cc2)cc1 [Example 13-15]
AC50 (FoxO3a): 114 nM | AC50 (Akt): 493 nM

Cc1nc(C(N)=O)nn1-c1ccc(C(C)(C)c2ccc(-c3ccsc3)cc2)cc1 [Example 13-16]
AC50 (FoxO3a): 377 nM | AC50 (Akt): 926 nM

Cc1nc(C(N)=O)nn1-c1ccc(C(C)(C)c2ccc(-c3ccc(C(N)C(F)(F)F)cc3)cc2)cc1 (stereo not shown) [Example 14, 1-(4-(2-(4′-(1-amino-2,2,2-trifluoroethyl)-[1,1′-biphenyl]-4-yl)propan-2-yl)phenyl)-5-methyl-1H-1,2,4-triazole-3-carboxamide]
AC50 (FoxO3a): 113 nM | AC50 (Akt): 180 nM
